US9340590B2 (priority 2011, dated 2016)
Where two headings read alike, the source gives them in different places. Positions of bridges follow the written chain, without caps; N, C: chain ends. Non-standard residues stand in square brackets, D forms with d. Residues, ends and D or L forms follow the SMILES beside them. Abu = CC[C@H](N)C(=O)O

Columns and labels:
[1] = molecular target: hNav1.3 (Homo sapiens, UniProt Q9NY46); test: cell-based; conditions: for IC50: IonWorks Quattro, read-out: IWQ Use Nav1.3
[2] = molecular target: hNav1.4 (Homo sapiens, UniProt P35499); test: cell-based; conditions: IonWorks Quattro, read-out: IWQ Use Nav1.4
hNav1.4, sequence (P35499 whole entry, looked up): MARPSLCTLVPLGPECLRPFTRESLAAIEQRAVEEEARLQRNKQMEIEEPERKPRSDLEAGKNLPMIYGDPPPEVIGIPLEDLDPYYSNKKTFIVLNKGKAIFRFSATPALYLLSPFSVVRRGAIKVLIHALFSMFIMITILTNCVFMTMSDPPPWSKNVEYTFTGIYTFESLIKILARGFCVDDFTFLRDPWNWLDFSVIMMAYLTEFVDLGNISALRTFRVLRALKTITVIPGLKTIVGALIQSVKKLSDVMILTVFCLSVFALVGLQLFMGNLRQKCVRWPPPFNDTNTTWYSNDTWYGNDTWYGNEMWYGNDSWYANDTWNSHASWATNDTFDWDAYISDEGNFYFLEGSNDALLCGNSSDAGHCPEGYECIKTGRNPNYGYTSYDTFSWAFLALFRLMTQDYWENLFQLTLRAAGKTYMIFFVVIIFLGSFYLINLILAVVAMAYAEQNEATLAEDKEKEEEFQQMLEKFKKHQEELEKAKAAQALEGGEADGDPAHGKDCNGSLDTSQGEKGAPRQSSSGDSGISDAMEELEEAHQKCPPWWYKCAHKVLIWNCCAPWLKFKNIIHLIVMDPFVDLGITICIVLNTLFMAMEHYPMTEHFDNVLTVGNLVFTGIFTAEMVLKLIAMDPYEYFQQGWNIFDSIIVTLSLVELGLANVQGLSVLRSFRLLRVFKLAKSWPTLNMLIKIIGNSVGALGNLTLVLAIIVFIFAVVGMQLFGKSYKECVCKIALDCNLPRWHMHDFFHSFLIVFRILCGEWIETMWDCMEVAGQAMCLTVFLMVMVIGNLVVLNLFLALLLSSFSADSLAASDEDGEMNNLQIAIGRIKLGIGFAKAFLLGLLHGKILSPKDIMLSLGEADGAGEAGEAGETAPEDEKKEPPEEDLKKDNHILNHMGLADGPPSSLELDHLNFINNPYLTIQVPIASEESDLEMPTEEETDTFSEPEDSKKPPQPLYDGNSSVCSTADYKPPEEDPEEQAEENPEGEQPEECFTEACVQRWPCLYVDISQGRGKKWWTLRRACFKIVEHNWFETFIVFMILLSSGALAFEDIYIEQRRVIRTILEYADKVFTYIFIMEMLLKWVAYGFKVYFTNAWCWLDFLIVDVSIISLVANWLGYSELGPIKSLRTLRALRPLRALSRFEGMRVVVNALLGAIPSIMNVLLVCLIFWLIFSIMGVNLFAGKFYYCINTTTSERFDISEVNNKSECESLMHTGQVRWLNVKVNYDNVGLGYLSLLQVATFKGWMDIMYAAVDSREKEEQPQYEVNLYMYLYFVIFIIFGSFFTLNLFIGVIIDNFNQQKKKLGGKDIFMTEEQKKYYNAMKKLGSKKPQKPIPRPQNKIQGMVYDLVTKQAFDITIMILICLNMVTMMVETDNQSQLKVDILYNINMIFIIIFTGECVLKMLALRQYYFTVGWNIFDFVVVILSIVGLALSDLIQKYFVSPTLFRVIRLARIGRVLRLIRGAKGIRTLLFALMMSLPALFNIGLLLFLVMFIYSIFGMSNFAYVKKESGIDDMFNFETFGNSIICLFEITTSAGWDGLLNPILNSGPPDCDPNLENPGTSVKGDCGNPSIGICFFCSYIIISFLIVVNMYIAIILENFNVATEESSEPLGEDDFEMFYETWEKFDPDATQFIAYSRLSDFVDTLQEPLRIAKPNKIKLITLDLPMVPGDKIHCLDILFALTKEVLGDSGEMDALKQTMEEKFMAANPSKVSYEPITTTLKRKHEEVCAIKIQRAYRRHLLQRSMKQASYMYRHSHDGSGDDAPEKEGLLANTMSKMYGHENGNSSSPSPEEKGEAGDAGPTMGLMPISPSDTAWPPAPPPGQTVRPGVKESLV

[3] = molecular target: hNav1.7 (Homo sapiens, UniProt Q15858); test: cell-based; type: cell-based; conditions: for IC50: IonWorks Quattro, read-out: IWQ Use Nav1.7
hNav1.7, sequence (Q15858 whole entry, looked up): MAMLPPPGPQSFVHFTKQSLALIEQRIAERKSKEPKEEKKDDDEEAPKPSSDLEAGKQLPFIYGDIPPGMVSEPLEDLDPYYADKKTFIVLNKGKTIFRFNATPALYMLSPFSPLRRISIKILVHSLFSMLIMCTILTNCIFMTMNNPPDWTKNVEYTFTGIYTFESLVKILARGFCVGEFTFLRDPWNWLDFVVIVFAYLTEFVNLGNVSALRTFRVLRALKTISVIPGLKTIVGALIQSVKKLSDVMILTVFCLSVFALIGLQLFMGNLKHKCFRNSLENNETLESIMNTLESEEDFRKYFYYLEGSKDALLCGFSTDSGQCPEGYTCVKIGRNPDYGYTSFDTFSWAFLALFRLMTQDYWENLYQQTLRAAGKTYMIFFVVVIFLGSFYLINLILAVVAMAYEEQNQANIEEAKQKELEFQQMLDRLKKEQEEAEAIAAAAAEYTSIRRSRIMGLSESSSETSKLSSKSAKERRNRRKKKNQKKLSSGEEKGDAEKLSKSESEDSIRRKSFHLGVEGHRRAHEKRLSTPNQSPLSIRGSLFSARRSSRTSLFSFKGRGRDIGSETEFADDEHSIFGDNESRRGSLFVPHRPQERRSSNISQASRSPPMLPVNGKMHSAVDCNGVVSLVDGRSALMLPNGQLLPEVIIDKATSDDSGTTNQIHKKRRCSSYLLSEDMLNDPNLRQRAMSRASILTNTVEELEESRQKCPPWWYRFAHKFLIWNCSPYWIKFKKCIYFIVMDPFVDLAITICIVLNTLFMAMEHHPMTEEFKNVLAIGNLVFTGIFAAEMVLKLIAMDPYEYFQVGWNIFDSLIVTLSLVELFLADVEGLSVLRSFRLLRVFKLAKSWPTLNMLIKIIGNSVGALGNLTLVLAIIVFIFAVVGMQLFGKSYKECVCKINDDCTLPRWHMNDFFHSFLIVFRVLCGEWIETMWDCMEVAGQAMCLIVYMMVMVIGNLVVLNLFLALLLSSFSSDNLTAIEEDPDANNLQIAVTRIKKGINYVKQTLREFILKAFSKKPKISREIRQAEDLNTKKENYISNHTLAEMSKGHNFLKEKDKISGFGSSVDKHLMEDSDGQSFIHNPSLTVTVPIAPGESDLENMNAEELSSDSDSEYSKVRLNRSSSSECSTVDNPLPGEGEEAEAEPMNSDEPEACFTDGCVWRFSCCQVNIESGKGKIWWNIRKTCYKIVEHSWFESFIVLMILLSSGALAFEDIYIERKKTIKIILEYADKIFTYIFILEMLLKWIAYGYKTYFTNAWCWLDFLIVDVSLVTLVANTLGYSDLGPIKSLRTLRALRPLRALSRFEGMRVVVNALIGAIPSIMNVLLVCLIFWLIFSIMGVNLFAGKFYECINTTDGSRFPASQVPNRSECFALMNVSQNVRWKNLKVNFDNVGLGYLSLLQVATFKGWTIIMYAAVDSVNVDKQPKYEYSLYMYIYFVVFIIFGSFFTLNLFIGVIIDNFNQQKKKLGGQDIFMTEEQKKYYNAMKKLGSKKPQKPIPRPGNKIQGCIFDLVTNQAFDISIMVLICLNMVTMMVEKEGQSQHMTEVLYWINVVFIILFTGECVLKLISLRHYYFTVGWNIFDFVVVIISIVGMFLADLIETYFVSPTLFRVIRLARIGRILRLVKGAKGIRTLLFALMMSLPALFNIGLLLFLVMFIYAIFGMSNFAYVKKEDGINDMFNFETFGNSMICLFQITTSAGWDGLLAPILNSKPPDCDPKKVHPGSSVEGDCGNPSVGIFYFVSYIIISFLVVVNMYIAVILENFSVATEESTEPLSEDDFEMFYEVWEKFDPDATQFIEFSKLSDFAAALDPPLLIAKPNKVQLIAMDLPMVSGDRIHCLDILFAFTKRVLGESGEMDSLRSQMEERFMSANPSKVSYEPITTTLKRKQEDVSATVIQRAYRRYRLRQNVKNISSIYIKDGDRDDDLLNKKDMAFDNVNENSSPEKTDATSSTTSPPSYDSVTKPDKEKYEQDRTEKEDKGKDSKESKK

[4] = molecular target: hNav1.5 (Homo sapiens, UniProt Q14524); test: cell-based; conditions: IonWorks Quattro, read-out: IWQ Use Nav1.5
[5] = system: locomotor activity in male CD-1 mice; conditions: later studies (FIGS. 99-110); 5 mg/kg s.c., 1-hour pre-treatment
[6] = clamped to −110 mV, depolarized to −10 mV, 5 min after compound, n=2

SMILES | IC50 [1, 6] [µM] | IC50 [2, 6] [µM] | IC50 [3, 6] [µM] | IC50 [4, 6] [µM] | further results
CC(C)C[C@H](NC(=O)[C@H](CCCCN)NC(=O)[C@H](Cc1ccc(O)cc1)NC(=O)[C@H](CCCCN)NC(=O)[C@@H]1CSSC[C@@H]2NC(=O)[C@H](CCCCN)NC(=O)[C@H](CC(=O)O)NC(=O)[C@H](CC(N)=O)NC(=O)[C@H](CC(=O)O)NC(=O)[C@@H]3CCCN3C(=O)[C@H](CC(=O)O)NC(=O)[C@@H]3CSSC[C@H](NC(=O)[C@H](CCCCN)NC(=O)[C@H](Cc4ccc(O)cc4)NC(=O)CNC(=O)[C@H](CCC(=O)O)NC(=O)[C@H](CSSC[C@H](NC(=O)[C@@H](N)CC(=O)O)C(=O)N[C@@H](CC(C)C)C(=O)NCC(=O)N[C@@H](Cc4c[nH]c5ccccc45)C(=O)N[C@@H](Cc4ccccc4)C(=O)N[C@@H](CCCCN)C(=O)NCC(=O)N3)NC2=O)C(=O)N[C@@H](CC(N)=O)C(=O)N[C@@H](CCCNC(=N)N)C(=O)N[C@@H](CCCNC(=N)N)C(=O)N[C@@H](CC(=O)O)C(=O)N[C@@H](CCCCN)C(=O)N[C@@H](Cc2c[nH]c3ccccc23)C(=O)N1)C(N)=O [SEQ ID NO: 468] (H-DCLGWFKGCDPDNDKCCEGYKCNRRDKWCKYKL-NH2; disulfide 2-17, 9-22, 16-29) | 9.37 | 20 | 8.93 | 7.8 | –
CC(C)C[C@H](NC(=O)[C@H](CCCCN)NC(=O)[C@H](Cc1ccc(O)cc1)NC(=O)[C@H](CCCCN)NC(=O)[C@@H]1CSSC[C@@H]2NC(=O)[C@H](CCCCN)NC(=O)[C@H](CC(=O)O)NC(=O)[C@H](CC(N)=O)NC(=O)[C@H](CC(=O)O)NC(=O)[C@@H]3CCCN3C(=O)[C@H](CC(=O)O)NC(=O)[C@@H]3CSSC[C@H](NC(=O)[C@H](CCCCN)NC(=O)[C@H](Cc4ccc(O)cc4)NC(=O)[C@H](CC(N)=O)NC(=O)[C@H](CCC(=O)O)NC(=O)[C@H](CSSC[C@H](NC(=O)[C@@H](N)CC(=O)O)C(=O)N[C@@H](CC(C)C)C(=O)NCC(=O)N[C@@H](Cc4c[nH]c5ccccc45)C(=O)N[C@@H](Cc4ccccc4)C(=O)N[C@@H](CCCCN)C(=O)NCC(=O)N3)NC2=O)C(=O)N[C@@H](CC(N)=O)C(=O)N[C@@H](CCCNC(=N)N)C(=O)N[C@@H](CCCNC(=N)N)C(=O)N[C@@H](CCC(=O)O)C(=O)N[C@@H](CCC(N)=O)C(=O)N[C@@H](Cc2c[nH]c3ccccc23)C(=O)N1)C(N)=O [SEQ ID NO: 469] (H-DCLGWFKGCDPDNDKCCENYKCNRREQWCKYKL-NH2; disulfide 2-17, 9-22, 16-29) | 4.92 | 11 | 9.25 | 10.4 | –
CC(C)C[C@@H]1NC(=O)[C@@H](NC(=O)[C@@H](N)CC(=O)O)CSSC[C@@H]2NC(=O)[C@@H]3CSSC[C@@H](C(=O)N[C@@H](CCCCN)C(=O)N[C@@H](Cc4ccc(O)cc4)C(=O)N[C@@H](CCCCN)C(=O)N[C@@H](CC(C)C)C(=O)N[C@@H](Cc4c[nH]c5ccccc45)C(=O)N[C@@H](CCCCN)C(=O)O)NC(=O)[C@H](Cc4c[nH]c5ccccc45)NC(=O)[C@H](CCCCN)NC(=O)[C@H](CC(=O)O)NC(=O)[C@H](CCCNC(=N)N)NC(=O)[C@H](CCCNC(=N)N)NC(=O)[C@H](CC(N)=O)NC(=O)[C@H](CSSC[C@H](NC(=O)CNC(=O)[C@H](CCCCN)NC(=O)[C@H](Cc4ccccc4)NC(=O)[C@H](Cc4c[nH]c5ccccc45)NC(=O)CNC1=O)C(=O)N[C@@H](CC(=O)O)C(=O)N1CCC[C@H]1C(=O)N[C@@H](CC(=O)O)C(=O)N[C@@H](CC(N)=O)C(=O)N[C@@H](CC(=O)O)C(=O)N[C@@H](CCCCN)C(=O)N3)NC(=O)[C@H](CCCCN)NC(=O)[C@H](Cc1ccc(O)cc1)NC(=O)[C@H](CC(N)=O)NC(=O)[C@H](CCC(=O)O)NC2=O [SEQ ID NO: 473] (H-DCLGWFKGCDPDNDKCCENYKCNRRDKWCKYKLWK-OH; disulfide 2-17, 9-22, 16-29) | 3.5 | 10 | 10.4 | 7.6 | –
CC(C)C[C@@H]1NC(=O)[C@@H](NC(=O)[C@@H](N)CC(=O)O)CSSC[C@@H]2NC(=O)[C@@H]3CSSC[C@@H](C(=O)N[C@@H](CCCCN)C(=O)N[C@@H](Cc4ccc(O)cc4)C(=O)N[C@@H](CCCCN)C(=O)N[C@@H](CC(C)C)C(=O)N[C@@H](Cc4c[nH]c5ccccc45)C(=O)O)NC(=O)[C@H](Cc4c[nH]c5ccccc45)NC(=O)[C@H](CCCCN)NC(=O)[C@H](CC(=O)O)NC(=O)[C@H](CCCNC(=N)N)NC(=O)[C@H](CCCNC(=N)N)NC(=O)[C@H](CC(N)=O)NC(=O)[C@H](CSSC[C@H](NC(=O)CNC(=O)[C@H](CCCCN)NC(=O)[C@H](Cc4ccccc4)NC(=O)[C@H](Cc4c[nH]c5ccccc45)NC(=O)CNC1=O)C(=O)N[C@@H](CC(=O)O)C(=O)N1CCC[C@H]1C(=O)N[C@@H](CC(=O)O)C(=O)N[C@@H](CC(N)=O)C(=O)N[C@@H](CC(=O)O)C(=O)N[C@@H](CCCCN)C(=O)N3)NC(=O)[C@H](CCCCN)NC(=O)[C@H](Cc1ccc(O)cc1)NC(=O)[C@H](CC(N)=O)NC(=O)[C@H](CCC(=O)O)NC2=O [SEQ ID NO: 474] (H-DCLGWFKGCDPDNDKCCENYKCNRRDKWCKYKLW-OH; disulfide 2-17, 9-22, 16-29) | 1.4 | 10.5 | 4 | 7.9 | –
CC[C@H](C)[C@@H]1NC(=O)[C@@H]2CSSC[C@@H]3NC(=O)[C@H](C(C)C)NC(=O)[C@H](CC(C)C)NC(=O)[C@H](CC(N)=O)NC(=O)[C@@H]4CCCN4C(=O)[C@H](CCCNC(=N)N)NC(=O)[C@H](CSSC[C@H](NC(=O)[C@@H](N)CC(=O)O)C(=O)N[C@@H](CC(C)C)C(=O)NCC(=O)N[C@@H](Cc4ccccc4)C(=O)N[C@@H](CCSC)C(=O)N[C@@H](CCCNC(=N)N)C(=O)N[C@@H](CCCCN)C(=O)N2)NC(=O)[C@H](CSSC[C@@H](C(=O)N[C@@H](CCCCN)C(=O)N[C@@H](Cc2ccc(O)cc2)C(=O)N[C@H](C(=O)N[C@@H](Cc2ccccc2)C(N)=O)C(C)C)NC(=O)[C@H](CCC(=O)O)NC(=O)[C@H](CCCCN)NC(=O)[C@H](Cc2cnc[nH]2)NC(=O)[C@H]([C@@H](C)O)NC(=O)[C@H](CCCNC(=N)N)NC(=O)[C@H](CO)NC3=O)NC(=O)[C@H](CCCCN)NC(=O)[C@H](CC(=O)O)NC(=O)[C@H](CC(N)=O)NC(=O)[C@H](CC(=O)O)NC(=O)[C@@H]2CCCN2C1=O [[Glu29]GpTx-1(1-34)] (H-DCLGFMRKCIPDNDKCCRPNLVCSRTHKECKYVF-NH2; disulfide 2-17, 9-23, 16-30) | – | – | – | – | total basic movement [5]: did not significantly decrease; total fine movement [5]: not significantly affected; total rearing [5]: did not significantly decrease; total time rearing [5]: not significantly affected
CC(C)C[C@@H]1NC(=O)[C@@H](NC(=O)[C@@H](N)CC(=O)O)CSSC[C@@H]2NC(=O)[C@@H]3CSSC[C@@H](C(=O)N[C@@H](CCCCN)C(=O)N[C@@H](Cc4ccc(O)cc4)C(=O)N[C@@H](CCCCN)C(=O)N[C@@H](CC(C)C)C(=O)N[C@@H](Cc4c[nH]c5ccccc45)C(=O)N[C@@H](CCCCN)C(=O)O)NC(=O)[C@H](Cc4c[nH]c5ccccc45)NC(=O)[C@H](CCCCN)NC(=O)[C@H](CC(=O)O)NC(=O)[C@H](CCCNC(=N)N)NC(=O)[C@H](CCCNC(=N)N)NC(=O)[C@H](CC(N)=O)NC(=O)[C@H](CSSC[C@H](NC(=O)CNC(=O)[C@H](CCCCN)NC(=O)[C@H](Cc4ccccc4)NC(=O)[C@H](Cc4c[nH]c5ccccc45)NC(=O)CNC1=O)C(=O)N[C@@H](CC(=O)O)C(=O)N1CCC[C@H]1C(=O)N[C@@H](CC(=O)O)C(=O)N[C@@H](CC(N)=O)C(=O)N[C@@H](CC(=O)O)C(=O)N[C@@H](CCCCN)C(=O)N3)NC(=O)[C@H](CCCCN)NC(=O)[C@H](Cc1ccc(O)cc1)NC(=O)CNC(=O)[C@H](CCC(=O)O)NC2=O [compound 471] (H-DCLGWFKGCDPDNDKCCEGYKCNRRDKWCKYKLWK-OH; disulfide 2-17, 9-22, 16-29) | – | – | – | – | IC50 ([1]; use-dependent block, hNav1.3): 1.7 µM; Nav1.4/Nav1.3 ([1]; ratio of IWQ Use values, Nav1.4 over Nav1.3): 10.0; Nav1.7/Nav1.3 ([1]; ratio of IWQ Use values, Nav1.7 over Nav1.3): 5.5; IC50 ([2]; use-dependent block, hNav1.4): 17.4 µM; IC50 ([3]; use-dependent block, hNav1.7): 9.6 µM; Nav1.4/Nav1.7 ([3]; ratio of IWQ Use values, Nav1.4 over Nav1.7): 1.8; IC50 ([4]; use-dependent block, hNav1.5): 14.6 µM
CC[C@@H]1NC(=O)[C@@H]2CSSC[C@@H](C(=O)N[C@@H](CCCCN)C(=O)N[C@@H](Cc3ccc(O)cc3)C(=O)N[C@H](C(=O)N[C@@H](Cc3ccccc3)C(N)=O)C(C)C)NC(=O)[C@H](Cc3c[nH]c4ccccc34)NC(=O)[C@H](CCCCN)NC(=O)[C@H](Cc3c[nH]cn3)NC(=O)[C@H]([C@@H](C)O)NC(=O)[C@H](CCCNC(=N)N)NC(=O)[C@H](CO)NC(=O)[C@H](CSSC[C@H](NC(=O)[C@H](CCCCN)NC(=O)[C@H](CCCNC(=N)N)NC(=O)[C@H](CCSC)NC(=O)[C@H](C)NC(=O)CNC(=O)[C@H](CC(C)C)NC(=O)[C@H](CC)NC(=O)[C@@H](N)CC(=O)O)C(=O)N[C@@H](CC(=O)O)C(=O)N3CCC[C@H]3C(=O)N[C@@H](CC(=O)O)C(=O)N[C@@H](CC(N)=O)C(=O)N[C@@H](CC(=O)O)C(=O)N[C@@H](CCCCN)C(=O)N2)NC(=O)[C@H](C(C)C)NC(=O)[C@H](CC(C)C)NC(=O)[C@H](CC(N)=O)NC(=O)[C@@H]2CCCN2C(=O)[C@H](CCCNC(=N)N)NC1=O [compound 716] (H-D[Abu]LGAMRKCDPDNDKC[Abu]RPNLVCSRTHKWCKYVF-NH2; disulfide 9-23, 16-30) | – | – | – | – | IC50 ([1]; use-dependent block, hNav1.3): > 5 µM; IC50 ([2]; use-dependent block, hNav1.4): > 50 µM; IC50 ([3]; use-dependent block, hNav1.7): 3.7 µM; IC50 ([4]; use-dependent block, hNav1.5): 49 µM
